Laboratory results: patent publication US20040106651A1, “3,4-diaminopyriding tartrate and phosphate, pharmaceutical compositions and uses thereof” (priority 2001, published 2004)

Assay: Stability study in hard gelatin capsules under ICH storage conditions
Assay type: physicochemical
Details: for Stability under the storage conditions in accordance with the international recommendations: general statement; for Stability formulated in hard gelatin capsules: conclusion from tables I and II
Method: 3,4-DAP tartrate, as prepared above in example 1, was introduced into hard gelatin capsules made of gelatin of size No. 3 in a proportion of 10 mg (expressed as weight of 3,4-DAP in the free base form) per hard gelatin capsule (Hard gelatin capsules A).
In the same way and by way of comparison, hard gelatin capsules made of gelatin of size No. 3 including 10 mg of 3,4-DAP per hard gelatin capsule were prepared (Hard gelatin capsules B).
A stability study on 3,4-DAP tartrate and on 3,4-DAP, introduced respectively into hard gelatin capsules A and B, was subsequently carried out.
This study was carried out under the conditions recommended by the international recommendations for the study of the stability of active principles (International Conference on Harmonization, Draft Guideline on Stability Testing of New Drug and Product, November 1999, CPMP/ICH/2736/99).

| SMILES | Stability under the storage conditions in accordance with the international recommendations | Stability formulated in hard gelatin capsules |
| --- | --- | --- |
| Nc1ccncc1N.O=P(O)(O)O [3,4-DAP phosphate, 3,4-diaminopyridine Phosphate] | very high stability |  |
| Nc1ccncc1N.O=C(O)C(O)C(O)C(=O)O (centres unmarked) [3,4-DAP tartrate, 3,4-diaminopyridine Tartrate] | very high stability | great stability |
| Nc1ccncc1N [3,4-DAP, 3,4-diaminopyridine, reference compound] | unstable | unstable |
